# Source: patent US20080119530A1, “Method for treatment and prevention of ultraviolet light induced skin pathologies” (priority 2006, published 2008)
# Assays:
# Cdc25a = Cdc25a immunoblotting in keratinocytes; assay type: cell-based, mouse; details: vs appropriate controls
# Protocol: Immunoblotting. Flash frozen skin was ground with a mortar and pestle on dry ice, homogenized in lysis buffer containing 10 mM Tris (pH 7.4), 150 mM NaCl, 10% glycerol, 1% Triton X-100, 1 mM EDTA, Complete Protease Inhibitor Cocktail (Roche, Germany), 1 mM Na3V O4, 1.5 μM EGTA, and 10 μM NaF. Protein was quantified using the Coomassie Brilliant Blue G-250 protein assay (Bio-Rad, Hercules, Calif.). The evenness of loading and transfer was determined by staining with Ponceau S and by actin immunoblotting. […]
# Cell culture. […] Transfection efficiency was quantified by determining the proportion of the cells that incorporated the fluorescent Cy3-conjugated siRNA or GFP one day post-transfection. […]
# In order to understand how Erbb2 regulates S-phase progression following UV irradiation, signaling pathways known to regulate progression into and through S-phase were examined. […] The effect of abrogation of Erbb2 on Cdc25a occurred post-transcriptionally, since no decrease in Cdc25a mRNA was detected in our microarray analysis using the Erbb2 inhibitor (32). […]
# primary keratinocytes [1] = assay: BrdU incorporation (DNA synthesis) in cultured primary keratinocytes; assay type: cell-based, mouse
# Excerpt: Cell culture. […] Keratinocytes were transfected with Erbb2-targeted siRNA (32), Stealth RNAi Negative Control LO GC (Invitrogen, Carlsbad, Calif.), Cy3-conjugated Label IT RNAi Delivery Control (Mirus, Madison, Wis.) or sham transfection with TransIT-siQUEST Transfection Reagent (Mirus, Madison, Wis.). Plasmids with Cdc25a (Hassepass et al. 2003a) and EGFP (enhanced green fluorescent protein) cDNA were cotransfected with Lipofectamine Transfection Reagent (Invitrogen, Carlsbad, Calif.). Transfection efficiency was quantified by determining the proportion of the cells that incorporated the fluorescent Cy3-conjugated siRNA or GFP one day post-transfection. […]
# Cell cycle. […] For in vitro analysis, keratinocytes were resuspended, fixed in 70% ethanol, resuspended in Vindelov's solution (3.5 mM Tris base, pH 7.6, 10 mM NaCl, 10 μg/ml Ribonuclease A, 75 μg/ml propidium iodide, 1.01l/ml IPEGAL), and analyzed on a FACSCalibur flow cytometer (Becton Dickinson, Franklin Lakes, N.J.). Cell cycle distributions were determined using ModFit LT 3.1 software (Verity Software House, Topsham, Me.). […]
# Proliferation and apoptosis assays. Proliferation, survival and apoptosis were quantified in three replicate experiments. BrdU uptake was measured by a chemiluminescenit BrdU Cell Proliferation ELISA (Roche, Germany). […] MUH fluorescence from wells lacking cells was subtracted from all samples. […]
# Abl = Abl (Homo sapiens, UniProt P00519)
# Abl, sequence (P00519 whole entry, species assumed): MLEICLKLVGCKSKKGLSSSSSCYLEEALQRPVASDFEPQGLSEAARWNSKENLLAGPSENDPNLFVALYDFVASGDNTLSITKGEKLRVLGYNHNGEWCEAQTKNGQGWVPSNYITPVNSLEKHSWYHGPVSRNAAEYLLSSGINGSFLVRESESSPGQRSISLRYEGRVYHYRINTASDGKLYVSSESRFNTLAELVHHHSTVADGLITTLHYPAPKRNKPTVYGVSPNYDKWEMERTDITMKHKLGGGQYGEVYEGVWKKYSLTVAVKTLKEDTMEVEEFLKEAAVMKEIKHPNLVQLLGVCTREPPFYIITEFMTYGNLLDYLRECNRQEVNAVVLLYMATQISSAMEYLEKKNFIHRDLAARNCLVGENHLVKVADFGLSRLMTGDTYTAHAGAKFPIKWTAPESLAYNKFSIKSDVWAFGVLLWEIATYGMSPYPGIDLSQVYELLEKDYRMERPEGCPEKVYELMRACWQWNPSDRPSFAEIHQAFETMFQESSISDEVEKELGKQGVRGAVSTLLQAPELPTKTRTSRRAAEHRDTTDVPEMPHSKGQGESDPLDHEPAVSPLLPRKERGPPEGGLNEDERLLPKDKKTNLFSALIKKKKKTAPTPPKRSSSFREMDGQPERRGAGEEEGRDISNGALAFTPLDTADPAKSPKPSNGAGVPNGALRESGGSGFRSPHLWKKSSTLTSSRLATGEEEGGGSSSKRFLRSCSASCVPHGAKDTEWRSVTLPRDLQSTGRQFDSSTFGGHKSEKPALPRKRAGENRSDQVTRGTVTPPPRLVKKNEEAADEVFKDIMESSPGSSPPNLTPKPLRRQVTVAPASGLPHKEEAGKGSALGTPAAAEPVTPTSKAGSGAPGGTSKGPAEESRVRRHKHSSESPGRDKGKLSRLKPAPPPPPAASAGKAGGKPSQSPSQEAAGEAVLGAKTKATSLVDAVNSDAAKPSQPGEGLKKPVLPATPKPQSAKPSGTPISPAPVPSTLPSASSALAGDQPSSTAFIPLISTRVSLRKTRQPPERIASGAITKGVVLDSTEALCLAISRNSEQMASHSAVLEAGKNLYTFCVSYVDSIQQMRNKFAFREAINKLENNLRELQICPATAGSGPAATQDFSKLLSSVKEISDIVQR
# primary keratinocytes [2] = assay: Cell cycle distribution (DNA content, flow cytometry) in cultured keratinocytes; assay type: cell-based, mouse
# Excerpt: Cell culture. […] Keratinocytes were transfected with Erbb2-targeted siRNA (32), Stealth RNAi Negative Control LO GC (Invitrogen, Carlsbad, Calif.), Cy3-conjugated Label IT RNAi Delivery Control (Mirus, Madison, Wis.) or sham transfection with TransIT-siQUEST Transfection Reagent (Mirus, Madison, Wis.). Plasmids with Cdc25a (Hassepass et al. 2003a) and EGFP (enhanced green fluorescent protein) cDNA were cotransfected with Lipofectamine Transfection Reagent (Invitrogen, Carlsbad, Calif.). Transfection efficiency was quantified by determining the proportion of the cells that incorporated the fluorescent Cy3-conjugated siRNA or GFP one day post-transfection. Keratinocytes homozygous for the Erbb2 loxP mutation were infected with Cre recombinase-expressing or empty adenoviral vectors in polybrene (Sigma).
# Cell cycle. For in vivo analysis of cell cycle distribution, sections from paraffin embedded blocks were dewaxed with xylene, rehydrated and digested in PBS containing 0.5% pepsin (Sigma, St. Louis, Mo.). The nuclei were isolated by filtration and suspended in Vindelov's solution reagent (3.5 mM tris base, pH 7.6, 10 mM NaCl, […] Ribonuclease A, 75 μg/ml PI, 1.01l/ml IPEGAL) (56). For in vitro analysis, keratinocytes were resuspended, fixed in 70% ethanol, resuspended in Vindelov's solution (3.5 mM Tris base, pH 7.6, 10 mM NaCl, 10 μg/ml Ribonuclease A, 75 μg/ml propidium iodide, 1.01l/ml IPEGAL), and analyzed on a FACSCalibur flow cytometer (Becton Dickinson, Franklin Lakes, N.J.). Cell cycle distributions were determined using ModFit LT 3.1 software (Verity Software House, Topsham, Me.). […]
# To further investigate Erbb2's effects on cell cycle progression after UV irradiation, DNA synthesis was examined after UV irradiation of cultured primary keratinocytes lacking Erbb2 activity. […] An even more striking effect was detected after UV irradiation. […] The influence of Erbb2 activation on S-phase progression was determined using both pharmacologic and genetic models to interfere with Erbb2 signaling. […]
smiles,measurement,setting,value
COc1cc(/C=C(\C#N)C(N)=O)cc(CSc2nc3ccccc3s2)c1O [AG825],Cdc25a immunoreactivity,Cdc25a,decreased
same,BrdU incorporation,primary keratinocytes [1]; by 12 h after UV irradiation,reduced to nearly zero
same,BrdU incorporation,primary keratinocytes [1]; sham-irradiated keratinocytes,significantly reduced
same,fold higher IC50 for Abl than for Erbb2,Abl,more than 100 fold
same,time at which S-phase arrest began,primary keratinocytes [2]; after UV exposure,18 h
same,S-phase arrest,primary keratinocytes [2]; after sham UV,caused S-phase arrest
same,increase in the percentage of cells in S-phase,primary keratinocytes [2]; inhibition prior to UV exposure,10%
